Reference: the SangsterLogP compilation

Experiment: not given
Conditions: not given

**Q.** With `CCCCC(=O)O` as the compound, how does the logP read?
**A.** Its logP is 1.39.

**Q.** With `Oc1ccc(Cl)cc1Cc1cc(Cl)ccc1O` as the compound, how does the logP read?
**A.** Its logP is 4.26.

**Q.** With `CCCCCCCC(=O)O` as the compound, how does the logP read?
**A.** Its logP is 3.05.

**Q.** For `O=C(Nc1ccccc1)c1ccccc1O`, which logP is on record?
**A.** Its logP is 3.25.

**Q.** With `C=CCCCCCCCCC(=O)O` as the compound, how does the logP read?
**A.** The logP was 3.86.

**Q.** For `O=C(O)c1cc(I)cc(I)c1O`, which logP is on record?
**A.** Its logP is 4.2.

**Q.** Which logP does the source give for `CCC(=O)O` here?
**A.** Its logP is 0.32.

**Q.** Which logP does the source give for `O=C(O)c1cccnc1` here?
**A.** Its logP is -0.46.

Experiment: method code SF, from DOI: 10.1002/tera.1420200312, PMID: 120615
Conditions: pH 7.4

**Q.** Which logD does the source give for `Cc1cc(O)c(C(C)C)cc1Cl` here?
**A.** The logD was 3.92.

**Q.** With `CC/C(=C(/CC)c1ccc(O)cc1)c1ccc(O)cc1` as the compound, how does the logD read?
**A.** Its logD is 4.76.

**Q.** With `Cc1ccccc1O` as the compound, how does the logD read?
**A.** Its logD is 1.93.
